How the values were obtained:
Type in all cases: in vivo
[1] = tested on: Ambrosia artemisifolia (AMBEL); experiment: Pre-emergence test; settings: 0.400 kg/ha, 3 weeks after treatment
Method: (§1) To evaluate their herbicidal activity, compounds according to the invention are tested using a representative range of plants: […] The pre-emergence tests involve spraying a liquid formulation of the compound onto the soil in which the seeds of the plant species mentioned above has recently been sown. The soil used in the tests is a prepared horticultural loam. […] In these tests untreated sown soil are used as controls.

[2] = tested on: Zea mays (ZEAMX); experiment: Pre-emergence test; settings: for Assessment rating ZEAMX (pre-emergence application): crop (corn), 3 weeks after treatment
Method: as §1

[3] = tested on: Alopecurus myosuroides (ALOMY); experiment: Post-emergence test; settings: 2-4 weeks after treatment
Method: (§2) To evaluate their herbicidal activity, compounds according to the invention are tested using a representative range of plants:
(§3) These acetone solutions are diluted with water and the resulting formulations applied at dosage levels equivalent of about 0.025 to 0.4 kg per hectare of test compound per pot. After spraying the plants are placed on greenhouse benches and are cared for in the usual manner, commensurate with conventional greenhouse practices. From 2 to 4 weeks after treatment, the seedling plants are examined and rated according to the rating system provided above.

[4] = tested on: Galium aparine (GALAP); experiment: Post-emergence test; settings: 2-4 weeks after treatment
Method: as §2, §3

[5] = tested on: Lamium purpureum (LAMPU); experiment: Post-emergence test; settings: 2-4 weeks after treatment
Method: as §2, §3

[6] = tested on: Echinochloa crus-galli (ECHCG); experiment: Post-emergence test; settings: 2-4 weeks after treatment
Method: as §2, §3

[7] = tested on: Cassia obtusifolia (CASOB); experiment: Post-emergence test; settings: 2-4 weeks after treatment
Method: as §2, §3

[8] = tested on: Lolium multiflorum (LOLMU); experiment: Post-emergence test; settings: 2-4 weeks after treatment
Method: as §2, §3

[9] = tested on: Digitaria sanguinalis (DIGSA); experiment: Post-emergence test; settings: 2-4 weeks after treatment
Method: as §2, §3

[10] = tested on: Stellaria media (STEME); experiment: Post-emergence test; settings: 2-4 weeks after treatment
Method: as §2, §3

[11] = tested on: Abutilon theophrasti (ABUTH); experiment: Post-emergence test; settings: 2-4 weeks after treatment
Method: as §2, §3

[12] = tested on: Setaria viridis (SETVI); experiment: Post-emergence test; settings: 2-4 weeks after treatment
Method: as §2, §3

[13] = tested on: Ipomoea hederacea (IPOHE); experiment: Post-emergence test; settings: 2-4 weeks after treatment
Method: as §2, §3

[14] = tested on: Matricaria inodora (MATIN); experiment: Post-emergence test; settings: 2-4 weeks after treatment
Method: as §2, §3

[15] = tested on: Ambrosia artemisifolia (AMBEL); experiment: Post-emergence test; settings: 2-4 weeks after treatment
Method: as §2, §3

[16] = tested on: thirteen weed species (broadleaf weeds and grasses); experiment: Pre-emergence test, summary over all weeds; settings: for Number of weed species well / sufficiently controlled: out of thirteen species
Method: as §1

[17] = tested on: weed species; experiment: Post-emergence test, summary over all weeds
Method: as §2, §3

In the case of `Cc1cc(Oc2cc(C(F)(F)F)nn2C)nc(-n2ccc(C(F)(F)F)n2)c1` [Example 2, 4-methyl-2-(-3-trifluoromethyl-1H-prazol-1-yl)-6-(1-methyl-3-trifluoromethyl-pyrazol-5-yloxy)-pyridine], the “Assessment rating AMBEL (pre-emergence application)” value [1] is reported as 9 (9 - Complete kill), the “Assessment rating ZEAMX (pre-emergence application)” value (shortened to “Assessment rating ZEAMX”) ([2]; 0.013 kg/ha) is reported as 0 (0 - No effect) and the “Assessment rating ZEAMX” value ([2]; 0.025 kg/ha) is reported as 1 (1 - Trace effect). For the same compound, the “Assessment rating ZEAMX” value ([2]; 0.100 kg/ha) was 2 (2 - Slight effect), the “Assessment rating ZEAMX” value ([2]; 0.400 kg/ha) was 4 (4 - Injury) and the Selectivity in maize ([2]; pre-emergence, 0.100 kg/ha) was “Good selectivity in maize”. For the same compound, the “Rating ALOMY (post-emergence application)” value (“Rating ALOMY” below) ([3]; 0.025 kg/ha) was 4 (4 - Injury), the “Rating ALOMY” value ([3]; 0.100 kg/ha) was 8 (8 - Approaching complete kill) and the “Rating ALOMY” value ([3]; 0.400 kg/ha) was 8 (8 - Approaching complete kill). The “Rating GALAP (post-emergence application)” value (from here on “Rating GALAP”) ([4]; 0.025 kg/ha) was 5 (5 - Definite injury), the “Rating GALAP” value ([4]; 0.100 kg/ha) was 6 (6 - Herbicidal effect) and the “Rating GALAP” value ([4]; 0.400 kg/ha) was 8 (8 - Approaching complete kill). The “Rating LAMPU (post-emergence application)” value (shortened to “Rating LAMPU”) ([5]; 0.025 kg/ha) was 8 (8 - Approaching complete kill), the “Rating LAMPU” value ([5]; 0.100 kg/ha) was 9 (9 - Complete kill) and the “Rating LAMPU” value ([5]; 0.400 kg/ha) was 9 (9 - Complete kill). For the same compound, the “Rating ECHCG (post-emergence application)” value (“Rating ECHCG” below) ([6]; 0.025 kg/ha) was 6 (6 - Herbicidal effect), the “Rating ECHCG” value ([6]; 0.100 kg/ha) was 9 (9 - Complete kill) and the “Rating ECHCG” value ([6]; 0.400 kg/ha) was 9 (9 - Complete kill). The “Rating CASOB (post-emergence application)” value (from here on “Rating CASOB”) ([7]; 0.025 kg/ha) was 9 (9 - Complete kill), the “Rating CASOB” value ([7]; 0.100 kg/ha) was 9 (9 - Complete kill) and the “Rating CASOB” value ([7]; 0.400 kg/ha) was 9 (9 - Complete kill). The “Rating LOLMU (post-emergence application)” value (shortened to “Rating LOLMU”) ([8]; 0.025 kg/ha) was 6 (6 - Herbicidal effect), the “Rating LOLMU” value ([8]; 0.100 kg/ha) was 9 (9 - Complete kill) and the “Rating LOLMU” value ([8]; 0.400 kg/ha) was 9 (9 - Complete kill). For the same compound, the “Rating DIGSA (post-emergence application)” value (“Rating DIGSA” below) ([9]; 0.025 kg/ha) was 6 (6 - Herbicidal effect), the “Rating DIGSA” value ([9]; 0.100 kg/ha) was 8 (8 - Approaching complete kill) and the “Rating DIGSA” value ([9]; 0.400 kg/ha) was 9 (9 - Complete kill). The “Rating STEME (post-emergence application)” value (from here on “Rating STEME”) ([10]; 0.025 kg/ha) was 8 (8 - Approaching complete kill), the “Rating STEME” value ([10]; 0.100 kg/ha) was 9 (9 - Complete kill) and the “Rating STEME” value ([10]; 0.400 kg/ha) was 9 (9 - Complete kill). For the same compound, the “Rating ABUTH (post-emergence application)” value (shortened to “Rating ABUTH”) ([11]; 0.025 kg/ha) was 6 (6 - Herbicidal effect), the “Rating ABUTH” value ([11]; 0.100 kg/ha) was 8 (8 - Approaching complete kill) and the “Rating ABUTH” value ([11]; 0.400 kg/ha) was 9 (9 - Complete kill). For the same compound, the “Rating SETVI (post-emergence application)” value (“Rating SETVI” below) ([12]; 0.025 kg/ha) was 6 (6 - Herbicidal effect), the “Rating SETVI” value ([12]; 0.100 kg/ha) was 8 (8 - Approaching complete kill) and the “Rating SETVI” value ([12]; 0.400 kg/ha) was 9 (9 - Complete kill). The “Rating IPOHE (post-emergence application)” value (from here on “Rating IPOHE”) ([13]; 0.025 kg/ha) was 9 (9 - Complete kill), the “Rating IPOHE” value ([13]; 0.100 kg/ha) was 9 (9 - Complete kill) and the “Rating IPOHE” value ([13]; 0.400 kg/ha) was 9 (9 - Complete kill). For the same compound, the “Rating MATIN (post-emergence application)” value (shortened to “Rating MATIN”) ([14]; 0.025 kg/ha) was 6 (6 - Herbicidal effect), the “Rating MATIN” value ([14]; 0.100 kg/ha) was 8 (8 - Approaching complete kill) and the “Rating MATIN” value ([14]; 0.400 kg/ha) was 8 (8 - Approaching complete kill). The “Rating AMBEL (post-emergence application)” value ([15]; 0.025 kg/ha) was 6 (6 - Herbicidal effect), the “Rating AMBEL (post-emergence application)” value ([15]; 0.100 kg/ha) was 8 (8 - Approaching complete kill) and the “Rating AMBEL (post-emergence application)” value ([15]; 0.400 kg/ha) was 8 (8 - Approaching complete kill). The “Herbicidal activity, overall judgement” value [16] was “excellent activity on both broadleaf weeds and grasses”, the “Rate required to obtain the same level of weed control” value [16] was 0.100 kg/ha and the “Number of weed species well / sufficiently controlled” value ([16]; 0.100 kg/ha) was “eleven out of thirteen species”. The “Number of weed species well / sufficiently controlled” value ([16]; 0.400 kg/ha) was “all of the thirteen weed species”, the “Number of weed species controlled” value ([17]; 0.100 kg/ha) was “twelve weed species” and the “Herbicidal activity, overall judgement” value ([17]; versus known compound of the prior art) was “clearly superior activity”.
